The subject of the experiment is E-cadherin expression in SW620 cells. Nature of the experiment: E-cadherin expression, in-cell Western (ICW), SW620 cells. The format is cell-based. As to conditions: Homo sapiens; for fold induction at 10 µM: SW-620, 24 h, change in expression level of E-cadherin in response to 10 μM compound, 24 hours, SW620 cells. The method, then:
SW620 and H520 cells (5×10^4/100 μL) were seeded in a 96-well plate prior to treatment. Cells were treated with 10 μM concentration of synthesized compound in quadruplicate for 24 hours in RPMI 1640 supplemented medium and 100 μg/mL penicillin-streptomycin. The cells were then fixed with 100% methanol for 20 minutes at 4° C. The wells were then washed 2 times with PBS, permeabilized in 2% bovine serum albumin (BSA) and 0.2% TritonX-100 in PBS for 30 minutes at room temperature with gentle agitation, and blocked in LI-COR blocking buffer for 30 minutes at room temperature with gentle agitation. The cells were then incubated with the following primary antibodies: anti-E-Cadherin (1:500) and anti-α-Tubulin (1:1000) diluted in blocking buffer (1:1 dilution in PBS) for 2 hours at room temperature with gentle agitation. The cells were washed 4 times in PBS-T for 5 minutes each, and then incubated with the following secondary antibodies conjugated to a fluorescent entity: IRDye 800-conjugated goat anti-rabbit IgG (1:1000) and IRDye-700-conjugated goat anti-mouse IgG (1:2000) in blocking buffer (1:1 dilution in PBS) with gentle agitation for 1 h at room temperature. The cells were washed 4 times in PBS-T for 5 minutes each followed by a single wash with PBS. All liquid was removed from the wells and the plates were visualized and analyzed on the Odyssey IR imaging system (LI-COR Biosciences).
The assay was further optimized in the following manner. The cells were washed 2 times with PBS, fixed in 100% methanol at room temperature for 15 minutes, and again washed 2 times with PBS. The cells were then incubated with the following primary antibodies: anti-E-Cadherin (1:200) and anti-α-Tubulin (1:2000) diluted in ice cold 2% bovine serum albumin (BSA) and 0.2% TritonX-100 in PBS for 1 hour at room temperature with gentle agitation. The cells were washed 2 times in PBS and then incubated with the following secondary antibodies conjugated to a fluorescent entity: Licor 800-conjugated goat anti-rabbit IgG (1:2000) and IRDye-700-conjugated goat anti-mouse IgG (1:2000) in ice cold 2% BSA and 0.2% TritonX-100 in PBS with gentle agitation for 45 minutes at room temperature. The wells were washed 2 times in PBS, dried, and analyzed as previously mentioned.
N-Acetamidoalkyl-5-arylisoxazole-3-carboxamide analogs were synthesized as described above. Changes in expression level of E-cadherin in response to 10 μM compound in SW620 cells was determined in a cell-based functional assay as described above, and the data are shown in Table III. The compound number corresponds to the compound numbers used in Table II.
EC50 of inducement of E-cadherin expression in SW620 cells was determined in a cell-based functional assay as described above, and the data are shown in Table V. The compound number corresponds to the compound numbers used in Table IV.

Consider `Cn1ccc(C(=O)NCCCNC(=O)c2cc(-c3ccccc3)on2)n1` [Compound 28, N-(3-(1-methyl-1H-pyrazole-3-carboxamido)propyl)-5-phenylisoxazole-3-carboxamide], for which the fold induction (in general, the ratio of treated to control signal) at 10 µM was found to be 3.42.

On to `O=C(NCCCNC(=O)c1cc(-c2ccccc2)on1)c1cocn1` [Compound 29, N-(3-(oxazole-4-carboxamido)propyl)-5-phenylisoxazole-3-carboxamide], for which the fold induction at 10 µM was found to be 3.35.

Consider `O=C(NCCCNC(=O)c1cnccc1O)c1cc(-c2ccccc2)on1` [Compound 30, N-(3-(4-hydroxynicotinamido)propyl)-5-phenylisoxazole-3-carboxamide], for which the fold induction at 10 µM is 2.69.

As for `O=C(NCCCNC(=O)c1cc(-c2ccccc2)on1)c1ccncc1` [Compound 31, N-(3-(isonicotinamido)propyl)-5-phenylisoxazole-3-carboxamide], the fold induction at 10 µM was determined as 3.51.

Regarding `N[C@@H](Cc1c[nH]c2ccccc12)C(=O)NCCCNC(=O)c1cc(-c2ccccc2)on1` [Compound 32, (S)—N-(3-(2-amino-3-(1H-indol-3-yl)propanamido)propyl)-5-phenylisoxazole-3-carboxamide], the fold induction at 10 µM was found to be 2.7.

For `O=C(NCCCNC(=O)c1cc(-c2ccccc2)on1)c1cscn1` [Compound 33, 5-phenyl-N-(3-(thiazole-4-carboxamido)propyl)isoxazole-3-carboxamide], the fold induction at 10 µM was 3.7.

For `O=C(NCCCNC(=O)c1ncco1)c1cc(-c2ccccc2)on1` [Compound 34, N-(3-(oxazole-2-carboxamido)propyl)-5-phenylisoxazole-3-carboxamide], the fold induction at 10 µM was 2.77.

Turning to `O=C(NCCCNC(=O)c1nccs1)c1cc(-c2ccccc2)on1` [Compound 35, 5-phenyl-N-(3-(thiazole-2-carboxamido)propyl)isoxazole-3-carboxamide], the fold induction at 10 µM was found to be 2.61.

In the case of `O=C(NCCCNC(=O)c1cc(-c2ccccc2)on1)c1ccc(O)c(O)c1` [Compound 36, N-(3-(3,4-dihydroxybenzamido)propyl)-5-phenylisoxazole-3-carboxamide], the fold induction at 10 µM was determined as 2.69.

In the case of `O=C(NCCCNC(=O)c1cc(-c2cccs2)on1)c1ccnc(O)c1` [Compound 37, N-(3-(2-hydroxyisonicotinamido)propyl)-5-(thiophen-2-yl)isoxazole-3-carboxamide], the fold induction at 10 µM was found to be 1.83.

Consider `Cc1ccc(C(=O)NCCCNC(=O)c2cc(-c3ccccc3)on2)o1` [Compound 38, N-(3-(5-methylfuran-2-carboxamido)propyl)-5-phenylisoxazole-3-carboxamide], for which the fold induction at 10 µM turned out to be 3.37.

In the case of `O=C(NCCCNC(=O)c1cc(-c2cccs2)on1)c1cccnc1` [Compound 39, N-(3-(nicotinamido)propyl)-5-(thiophen-2-yl)isoxazole-3-carboxamide], the fold induction at 10 µM turned out to be 4.56. Besides, where the note is “SW-620, inducement of E-cadherin expression in SW620 cells”, the half-maximal effective concentration (EC50) (usually the concentration that produces a half-maximal response) was 5.02 µM.

For `O=C(NCCCNC(=O)c1cc(-c2cccs2)on1)c1cc(Cl)ccn1` [Compound 40, N-(3-(4-chloropicolinamido)propyl)-5-(thiophen-2-yl)isoxazole-3-carboxamide], the fold induction at 10 µM was 1.95.

With `O=C(NCCCNC(=O)c1cc(-c2cccs2)on1)c1ccc(O)cn1` [Compound 41, N-(3-(5-hydroxypicolinamido)propyl)-5-(thiophen-2-yl)isoxazole-3-carboxamide], the fold induction at 10 µM was 2.77.

Consider `O=C(NCCCNC(=O)c1cncnc1O)c1cc(-c2cccs2)on1` [Compound 42, N-(3-(4-hydroxypyrimidine-5-carboxamido)propyl)-5-(thiophen-2-yl)isoxazole-3-carboxamide], for which the fold induction at 10 µM was 0.95.

With `COc1ccc(C(=O)NCCCNC(=O)c2cc(-c3cccs3)on2)c(OC)n1` [Compound 43, N-(3-(2,6-dimethoxynicotinamido)propyl)-5-(thiophen-2-yl)isoxazole-3-carboxamide], the fold induction at 10 µM came out at 1.45.

Turning to `O=C(NCCCNC(=O)c1ncccc1F)c1cc(-c2cccs2)on1` [Compound 44, N-(3-(3-fluoropicolinamido)propyl)-5-(thiophen-2-yl)isoxazole-3-carboxamide], the fold induction at 10 µM stood at 3.36.

As for `O=C(NCCCNC(=O)c1cccc(Br)n1)c1cc(-c2cccs2)on1` [Compound 45, N-(3-(6-bromopicolinamido)propyl)-5-(thiophen-2-yl)isoxazole-3-carboxamide], the fold induction at 10 µM stood at 3.35.

For the compound `Cc1ccc(C(=O)NCCCNC(=O)c2cc(-c3cccs3)on2)c(O)n1` [Compound 46, N-(3-(2-hydroxy-6-methylnicotinamido)propyl)-5-(thiophen-2-yl)isoxazole-3-carboxamide], the fold induction at 10 µM worked out at 3.48.

In the case of `Cc1ncccc1C(=O)NCCCNC(=O)c1cc(-c2cccs2)on1` [Compound 47, N-(3-(2-methylnicotinamido)propyl)-5-(thiophen-2-yl)isoxazole-3-carboxamide], the fold induction at 10 µM is 2.72.

In the case of `COC(=O)c1ccc(C(=O)NCCCNC(=O)c2cc(-c3cccs3)on2)nc1` [Compound 48, methyl 6-((3-(5-(thiophen-2-yl)isoxazole-3-carboxamido)propyl)carbamoyl)nicotinate], the fold induction at 10 µM amounted to 1.48.

With `O=C(NCCCNC(=O)c1cc(-c2cccs2)on1)c1ccc(O)nc1` [Compound 49, N-(3-(6-hydroxynicotinamido)propyl)-5-(thiophen-2-yl)isoxazole-3-carboxamide], the fold induction at 10 µM came to 1.71.

As for `O=C(NCCCNC(=O)c1cc(Br)cnc1O)c1cc(-c2cccs2)on1` [Compound 50, N-(3-(5-bromo-2-hydroxynicotinamido)propyl)-5-(thiophen-2-yl)isoxazole-3-carboxamide], the fold induction at 10 µM stood at 1.4.

As for `Cc1ccnc(O)c1C(=O)NCCCNC(=O)c1cc(-c2cccs2)on1` [Compound 51, N-(3-(2-hydroxy-4-methylnicotinamido)propyl)-5-(thiophen-2-yl)isoxazole-3-carboxamide], the fold induction at 10 µM came to 2.73.

Regarding `COc1ncccc1C(=O)NCCCNC(=O)c1cc(-c2cccs2)on1` [Compound 52, N-(3-(2-methoxynicotinamido)propyl)-5-(thiophen-2-yl)isoxazole-3-carboxamide], the fold induction at 10 µM turned out to be 3.99.

Consider `CCOc1ncccc1C(=O)NCCCNC(=O)c1cc(-c2cccs2)on1` [Compound 53, N-(3-(2-ethoxynicotinamido)propyl)-5-(thiophen-2-yl)isoxazole-3-carboxamide], for which the fold induction at 10 µM worked out at 3.52.

In the case of `O=C(NCCCNC(=O)c1cc(-c2cccs2)on1)c1cncc(F)c1` [Compound 54, N-(3-(5-fluoronicotinamido)propyl)-5-(thiophen-2-yl)isoxazole-3-carboxamide], the fold induction at 10 µM worked out at 2.22.

Consider `Cc1cccnc1C(=O)NCCCNC(=O)c1cc(-c2cccs2)on1` [Compound 55, N-(3-(3-methylpicolinamido)propyl)-5-(thiophen-2-yl)isoxazole-3-carboxamide], for which the fold induction at 10 µM worked out at 2.98.

For `O=C(NCCCNC(=O)c1cc(-c2ccccc2)on1)c1cccnc1` [Compound 56, N-(3-(nicotinamido)propyl)-5-phenylisoxazole-3-carboxamide], the fold induction at 10 µM amounted to 3.43.

On to `O=C(NCCCNC(=O)c1cc(-c2ccccc2)on1)c1cc(Cl)ccn1` [Compound 57, N-(3-(4-chloropicolinamido)propyl)-5-phenylisoxazole-3-carboxamide], for which the fold induction at 10 µM is 3.3.

On to `O=C(NCCCNC(=O)c1cc(-c2ccccc2)on1)c1ccc(O)cn1` [Compound 58, N-(3-(5-hydroxypicolinamido)propyl)-5-phenylisoxazole-3-carboxamide], for which the fold induction at 10 µM was 3.57.

For `O=C(NCCCNC(=O)c1ccncc1O)c1cc(-c2ccccc2)on1` [Compound 59, N-(3-(3-hydroxyisonicotinamido)propyl)-5-phenylisoxazole-3-carboxamide], the fold induction at 10 µM stood at 1.26.

`COc1ccc(C(=O)NCCCNC(=O)c2cc(-c3ccccc3)on2)c(OC)n1` [Compound 60, N-(3-(2,6-dimethoxynicotinamido)propyl)-5-phenylisoxazole-3-carboxamide]: the fold induction at 10 µM worked out at 2.32.

The record behind these values is patent US9783510B2, “Small molecule mediated transcriptional induction of E-cadherin” (Vanderbilt University, priority 2014, dated 2017).
